Key:
Experiment in all cases: relative viability (nuclei count vs DMSO), 5 days (fraction); higher = more cells survive
TGX 221 + Phenformin = compound: CC1=CN2C(=O)C=C(N=C2C(=C1)C(C)NC3=CC=CC=C3)N4CCOCC4 [TGX 221] + N=C(N)NC(=N)NCCc1ccccc1 [Phenformin] (partner 250 µM)
In short: (§1)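 Relative viability was taken as the ratio of nuclei in treated wells to nuclei in vehicle wells. Lung cancer cell lines in 1536-well plates received compounds by pin tool one day after seeding, either one drug alone or a fixed anchor-drug dose plus five library-drug doses (not always all listed) in √10 steps. Nuclei were counted on 4× images after 5 days of treatment, and values are medians of duplicate plates.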

[1] = compound: C1=CC=C(C(=C1)C2=CC=C(C=C2)C3=CSC4=C3C(=C(C(=O)N4)C#N)O)O + CC(=O)c1c(C)c2cnc(Nc3ccc(N4CCNCC4)cn3)nc2n(C2CCCC2)c1=O [Palbociclib] (partner 0.5 µM)
In short: as §1

[2] = compound: O=C(CCCCCCNC(=O)c1cnc(N(c2ccccc2)c2ccccc2)nc1)NO [Ricolinostat] + N=C(N)NC(=N)NCCc1ccccc1 [Phenformin] (partner 250 µM)
In short: as §1

TGX 221 + Olaparib = compound: CC1=CN2C(=O)C=C(N=C2C(=C1)C(C)NC3=CC=CC=C3)N4CCOCC4 [TGX 221] + O=C(c1cc(Cc2n[nH]c(=O)c3ccccc23)ccc1F)N1CCN(C(=O)C2CC2)CC1 [Olaparib] (partner 8 µM)
In short: as §1

Cell Line: NCI-H1355
- relative viability (TGX 221 + Phenformin; first compound 0.08 µM): 0.439
- relative viability (TGX 221 + Phenformin; first compound 0.253 µM): 0.465
- relative viability (TGX 221 + Phenformin; first compound 0.8 µM): 0.439
- relative viability (TGX 221 + Phenformin; first compound 2.53 µM): 0.419
- relative viability (TGX 221 + Phenformin; first compound 8 µM): 0.433
- relative viability ([1]; first compound 0.08 µM): 0.445
- relative viability ([1]; first compound 0.253 µM): 0.413
- relative viability ([1]; first compound 0.8 µM): 0.437
- relative viability ([1]; first compound 2.53 µM): 0.412
- relative viability ([1]; first compound 8 µM): 0.378
- relative viability ([2]; first compound 0.08 µM): 0.412
- relative viability ([2]; first compound 0.253 µM): 0.451
- relative viability ([2]; first compound 0.8 µM): 0.427
- relative viability ([2]; first compound 2.53 µM): 0.439
- relative viability (TGX 221 + Olaparib; first compound 0.08 µM): 0.714
- relative viability (TGX 221 + Olaparib; first compound 0.253 µM): 0.669
- relative viability (TGX 221 + Olaparib; first compound 0.8 µM): 0.718
- relative viability (TGX 221 + Olaparib; first compound 2.53 µM): 0.668
- relative viability (TGX 221 + Olaparib; first compound 8 µM): 0.619

Cell Line: NCI-H1395
- relative viability (TGX 221 + Phenformin; first compound 0.08 µM): 0.398
- relative viability (TGX 221 + Phenformin; first compound 0.253 µM): 0.435
- relative viability (TGX 221 + Phenformin; first compound 0.8 µM): 0.401
- relative viability (TGX 221 + Phenformin; first compound 2.53 µM): 0.436
- relative viability (TGX 221 + Phenformin; first compound 8 µM): 0.409
- relative viability ([1]; first compound 0.253 µM): 0.706
- relative viability ([1]; first compound 0.8 µM): 0.593
- relative viability ([1]; first compound 2.53 µM): 0.611
- relative viability ([1]; first compound 8 µM): 0.657
- relative viability ([2]; first compound 0.253 µM): 0.48
- relative viability ([2]; first compound 0.8 µM): 0.425
- relative viability ([2]; first compound 2.53 µM): 0.463
- relative viability (TGX 221 + Olaparib; first compound 0.08 µM): 0.452
- relative viability (TGX 221 + Olaparib; first compound 0.253 µM): 0.438
- relative viability (TGX 221 + Olaparib; first compound 0.8 µM): 0.411
- relative viability (TGX 221 + Olaparib; first compound 2.53 µM): 0.399
- relative viability (TGX 221 + Olaparib; first compound 8 µM): 0.393

Cell Line: NCI-H1437
- relative viability (TGX 221 + Phenformin; first compound 0.08 µM): 0.315
- relative viability (TGX 221 + Phenformin; first compound 0.253 µM): 0.302
- relative viability (TGX 221 + Phenformin; first compound 0.8 µM): 0.252
- relative viability (TGX 221 + Phenformin; first compound 2.53 µM): 0.269
- relative viability (TGX 221 + Phenformin; first compound 8 µM): 0.335
- relative viability ([1]; first compound 0.08 µM): 0.277
- relative viability ([1]; first compound 0.253 µM): 0.361
- relative viability ([1]; first compound 0.8 µM): 0.324
- relative viability ([1]; first compound 2.53 µM): 0.326
- relative viability ([1]; first compound 8 µM): 0.27
- relative viability ([2]; first compound 0.08 µM): 0.23
- relative viability ([2]; first compound 0.253 µM): 0.561
- relative viability ([2]; first compound 0.8 µM): 0.292
- relative viability ([2]; first compound 2.53 µM): 0.23
- relative viability (TGX 221 + Olaparib; first compound 0.08 µM): 0.649
- relative viability (TGX 221 + Olaparib; first compound 0.253 µM): 0.589
- relative viability (TGX 221 + Olaparib; first compound 0.8 µM): 0.678
- relative viability (TGX 221 + Olaparib; first compound 2.53 µM): 0.603
- relative viability (TGX 221 + Olaparib; first compound 8 µM): 0.632

Cell Line: NCI-H1650
- relative viability (TGX 221 + Phenformin; first compound 0.08 µM): 0.419
- relative viability (TGX 221 + Phenformin; first compound 0.253 µM): 0.3
- relative viability (TGX 221 + Phenformin; first compound 0.8 µM): 0.377
- relative viability (TGX 221 + Phenformin; first compound 2.53 µM): 0.382
- relative viability (TGX 221 + Phenformin; first compound 8 µM): 0.255
- relative viability ([1]; first compound 0.08 µM): 0.23
- relative viability ([1]; first compound 0.253 µM): 0.332
- relative viability ([1]; first compound 0.8 µM): 0.317
- relative viability ([1]; first compound 2.53 µM): 0.31
- relative viability ([1]; first compound 8 µM): 0.31
- relative viability ([2]; first compound 0.08 µM): 0.338
- relative viability ([2]; first compound 0.253 µM): 0.408
- relative viability ([2]; first compound 0.8 µM): 0.445
- relative viability ([2]; first compound 2.53 µM): 0.218
- relative viability (TGX 221 + Olaparib; first compound 0.08 µM): 0.684
- relative viability (TGX 221 + Olaparib; first compound 0.253 µM): 0.704
- relative viability (TGX 221 + Olaparib; first compound 0.8 µM): 0.954
- relative viability (TGX 221 + Olaparib; first compound 2.53 µM): 0.719
- relative viability (TGX 221 + Olaparib; first compound 8 µM): 0.642

Cell Line: NCI-H1651
- relative viability (TGX 221 + Phenformin; first compound 0.08 µM): 0.283
- relative viability (TGX 221 + Phenformin; first compound 0.253 µM): 0.265
- relative viability (TGX 221 + Phenformin; first compound 0.8 µM): 0.437
- relative viability (TGX 221 + Phenformin; first compound 2.53 µM): 0.316
- relative viability (TGX 221 + Phenformin; first compound 8 µM): 0.286
- relative viability ([1]; first compound 0.08 µM): 0.506
- relative viability ([1]; first compound 0.253 µM): 0.491
- relative viability ([1]; first compound 0.8 µM): 0.483
- relative viability ([1]; first compound 2.53 µM): 0.518
- relative viability ([1]; first compound 8 µM): 0.48
- relative viability ([2]; first compound 0.08 µM): 0.318
- relative viability ([2]; first compound 0.253 µM): 0.352
- relative viability ([2]; first compound 0.8 µM): 0.311
- relative viability ([2]; first compound 2.53 µM): 0.365
- relative viability (TGX 221 + Olaparib; first compound 0.08 µM): 0.183
- relative viability (TGX 221 + Olaparib; first compound 0.253 µM): 0.199
- relative viability (TGX 221 + Olaparib; first compound 0.8 µM): 0.166
- relative viability (TGX 221 + Olaparib; first compound 2.53 µM): 0.161
- relative viability (TGX 221 + Olaparib; first compound 8 µM): 0.18

Cell Line: NCI-H1666
- relative viability (TGX 221 + Phenformin; first compound 0.08 µM): 0.556
- relative viability (TGX 221 + Phenformin; first compound 0.253 µM): 0.52
- relative viability (TGX 221 + Phenformin; first compound 0.8 µM): 0.598
- relative viability (TGX 221 + Phenformin; first compound 2.53 µM): 0.561
- relative viability (TGX 221 + Phenformin; first compound 8 µM): 0.529
- relative viability ([1]; first compound 0.08 µM): 0.63
- relative viability ([1]; first compound 0.253 µM): 0.669
- relative viability ([1]; first compound 0.8 µM): 0.637
- relative viability ([1]; first compound 2.53 µM): 0.641
- relative viability ([1]; first compound 8 µM): 1.02
- relative viability ([2]; first compound 0.08 µM): 0.481
- relative viability ([2]; first compound 0.253 µM): 0.572
- relative viability ([2]; first compound 0.8 µM): 0.547
- relative viability ([2]; first compound 2.53 µM): 0.521
- relative viability (TGX 221 + Olaparib; first compound 0.08 µM): 0.751
- relative viability (TGX 221 + Olaparib; first compound 0.253 µM): 0.748
- relative viability (TGX 221 + Olaparib; first compound 0.8 µM): 0.754
- relative viability (TGX 221 + Olaparib; first compound 2.53 µM): 0.727
- relative viability (TGX 221 + Olaparib; first compound 8 µM): 0.774

Cell Line: NCI-H1734
- relative viability (TGX 221 + Phenformin; first compound 0.08 µM): 0.379
- relative viability (TGX 221 + Phenformin; first compound 0.253 µM): 0.362
- relative viability (TGX 221 + Phenformin; first compound 0.8 µM): 0.395
- relative viability (TGX 221 + Phenformin; first compound 2.53 µM): 0.413
- relative viability (TGX 221 + Phenformin; first compound 8 µM): 0.406
- relative viability ([1]; first compound 0.08 µM): 0.324
- relative viability ([1]; first compound 0.253 µM): 0.295
- relative viability ([1]; first compound 0.8 µM): 0.261
- relative viability ([1]; first compound 2.53 µM): 0.33
- relative viability ([1]; first compound 8 µM): 0.377
- relative viability ([2]; first compound 0.08 µM): 0.35
- relative viability ([2]; first compound 0.253 µM): 0.452
- relative viability ([2]; first compound 0.8 µM): 0.351
- relative viability ([2]; first compound 2.53 µM): 0.466
- relative viability (TGX 221 + Olaparib; first compound 0.08 µM): 0.557
- relative viability (TGX 221 + Olaparib; first compound 0.253 µM): 0.554
- relative viability (TGX 221 + Olaparib; first compound 0.8 µM): 0.616
- relative viability (TGX 221 + Olaparib; first compound 2.53 µM): 0.576
- relative viability (TGX 221 + Olaparib; first compound 8 µM): 0.523

Cell Line: NCI-H1755
- relative viability (TGX 221 + Phenformin; first compound 0.08 µM): 0.584
- relative viability (TGX 221 + Phenformin; first compound 0.253 µM): 0.598
- relative viability (TGX 221 + Phenformin; first compound 0.8 µM): 0.549
- relative viability (TGX 221 + Phenformin; first compound 2.53 µM): 0.585
- relative viability (TGX 221 + Phenformin; first compound 8 µM): 0.528
- relative viability ([1]; first compound 0.08 µM): 0.447
- relative viability ([1]; first compound 0.253 µM): 0.482
- relative viability ([1]; first compound 0.8 µM): 0.418
- relative viability ([1]; first compound 2.53 µM): 0.42
- relative viability ([1]; first compound 8 µM): 0.48
- relative viability ([2]; first compound 0.08 µM): 0.45
- relative viability ([2]; first compound 0.253 µM): 0.6
- relative viability ([2]; first compound 0.8 µM): 0.608
- relative viability ([2]; first compound 2.53 µM): 0.604
- relative viability (TGX 221 + Olaparib; first compound 0.08 µM): 0.853
- relative viability (TGX 221 + Olaparib; first compound 0.253 µM): 0.843
- relative viability (TGX 221 + Olaparib; first compound 0.8 µM): 0.829
- relative viability (TGX 221 + Olaparib; first compound 2.53 µM): 0.738
- relative viability (TGX 221 + Olaparib; first compound 8 µM): 0.68

Cell Line: NCI-H1793
- relative viability (TGX 221 + Phenformin; first compound 0.08 µM): 0.367
- relative viability (TGX 221 + Phenformin; first compound 0.253 µM): 0.256
- relative viability (TGX 221 + Phenformin; first compound 0.8 µM): 0.311
- relative viability (TGX 221 + Phenformin; first compound 2.53 µM): 0.25
- relative viability (TGX 221 + Phenformin; first compound 8 µM): 0.309
- relative viability ([1]; first compound 0.08 µM): 0.255
- relative viability ([1]; first compound 0.253 µM): 0.422
- relative viability ([1]; first compound 0.8 µM): 0.316
- relative viability ([1]; first compound 2.53 µM): 0.285
- relative viability ([1]; first compound 8 µM): 0.261
- relative viability ([2]; first compound 0.253 µM): 0.438
- relative viability ([2]; first compound 0.8 µM): 0.355
- relative viability ([2]; first compound 2.53 µM): 0.369
- relative viability (TGX 221 + Olaparib; first compound 0.08 µM): 0.786
- relative viability (TGX 221 + Olaparib; first compound 0.253 µM): 0.507
- relative viability (TGX 221 + Olaparib; first compound 0.8 µM): 0.612
- relative viability (TGX 221 + Olaparib; first compound 2.53 µM): 0.414
- relative viability (TGX 221 + Olaparib; first compound 8 µM): 0.502
